Source: patent US12496301B2, “Use of androgen receptor degrader for the treatment of spinal and bulbar muscular atrophy” (Arvinas Operations, Inc., priority 2023, dated 2025)
Read-outs that look alike come from different tables or passages of the source.

Assays:
[1] = tested on: polyQ-AR; experiment: polyQ-AR degradation in SBMA patient hiPSC-derived myotubes, capillary immunoassay; format: cell-based, human; details: two donor hiPSC lines, 24 hours
Method: Lysates for hiPSC-derived myotubes were prepared in lysis buffer ([…], 50 mM sodium chloride, 1% NP-40, 1% SDS) supplemented with Halt Protease Inhibitor (78437 Thermo Fisher Scientific), Benzonase, and MgCl2 (1 mM final concentration). The lysates were cleared by centrifugation at 4° C. and supernatants were quantified using the BIO-RAD DC protein assay (5000112 BIO-RAD). The AR and protein levels were quantified by an automated capillary immunoassay experiment (ProteinSimple). The AR and Myosin Protein levels were quantified and normalized to total protein.
(§1) Control and SBMA hiPSCs were differentiated into myotubes as previously described (Caron, L. et al. 2016, STEM CELLS Transl. Med. 5, 1145-1161) using the skeletal muscle differentiation kit (Amsbio). hiPSCs were dissociated to single cells using Accutase and plated on Geltrex-coated 10 cm culture plates at a density of 200,000 cells per plate with SBMA hiPSCs in skeletal muscle induction media (SKM01, AMSBIO). Media changes were performed every second day until cells were confluent (˜7 days). The resulting myogenic precursor cells were then dissociated to single cells using Accutase and replated on Matrigel-coated 24-well tissue culture plate with 500 μL of cells at 35,000 cells per mL in skeletal myoblast media (SKM02, AMSBIO). Half media changes were performed every second day until myoblasts reached confluence (˜7 days). The media was then switched to myotube medium (SKM03, ASMBIO). Media changes every second day until myotube formation was confirmed by microscopy. Myotubes were treated on day 20 of differentiation (6 days' worth of SKM03 media) with compounds diluted in DMSO for a final DMSO concentration of 0.01% in SKM03 media. The cells were lysed 24 hours later in Pierce RIPA buffer (Cat. No. 89900, ThermoFisher) supplemented with 1× Halt protease inhibitor cocktail (Cat. No. 87786, ThermoFisher), 1 mM MgCl2, and 1 μL Benzonase Nuclease. AR protein was measured by capillary electrophoresis. […]

[2] = target: T1, endogenous mouse AR (Mus musculus, UniProt P19091); experiment: Endogenous mouse AR degradation in muscle of hAR100Q mice, capillary immunoassay; format: in vivo
T1 construct: from tissue; host or cells: mouse LABC muscle (C57Bl/6 and hAR100Q mice); quadriceps (hAR100Q mice)
T1 sequence (P19091 1-899): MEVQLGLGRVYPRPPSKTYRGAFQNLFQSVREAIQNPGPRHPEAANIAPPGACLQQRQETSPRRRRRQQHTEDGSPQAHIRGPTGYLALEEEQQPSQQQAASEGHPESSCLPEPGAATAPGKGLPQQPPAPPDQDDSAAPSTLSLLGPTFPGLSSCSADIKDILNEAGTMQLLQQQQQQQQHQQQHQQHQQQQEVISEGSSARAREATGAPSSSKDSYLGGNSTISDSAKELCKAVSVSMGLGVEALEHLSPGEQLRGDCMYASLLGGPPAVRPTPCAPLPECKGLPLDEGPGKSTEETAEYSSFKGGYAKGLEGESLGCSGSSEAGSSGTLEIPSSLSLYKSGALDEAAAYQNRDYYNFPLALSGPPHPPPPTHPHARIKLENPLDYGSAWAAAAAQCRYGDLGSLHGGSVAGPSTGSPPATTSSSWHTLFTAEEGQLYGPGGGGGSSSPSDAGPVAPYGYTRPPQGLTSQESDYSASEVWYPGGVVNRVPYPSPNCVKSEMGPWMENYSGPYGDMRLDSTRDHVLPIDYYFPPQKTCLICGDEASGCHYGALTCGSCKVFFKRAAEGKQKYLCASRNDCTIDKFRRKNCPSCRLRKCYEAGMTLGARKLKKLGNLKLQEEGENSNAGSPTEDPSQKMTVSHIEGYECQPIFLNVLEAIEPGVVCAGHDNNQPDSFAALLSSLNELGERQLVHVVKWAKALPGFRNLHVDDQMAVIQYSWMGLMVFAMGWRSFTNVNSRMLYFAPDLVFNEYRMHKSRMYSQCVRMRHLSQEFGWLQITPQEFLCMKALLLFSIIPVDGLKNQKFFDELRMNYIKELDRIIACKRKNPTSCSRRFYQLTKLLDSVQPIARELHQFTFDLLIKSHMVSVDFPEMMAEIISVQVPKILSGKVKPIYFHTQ
Method: (§2) Mouse endogenous AR, human AR100Q, and high molecular weight hAR100Q from hAR100Q mice were quantified by capillary immunoassay. Tissue lysates were prepared as described above using antibodies to AR and resolved by capillary electrophoresis (ProteinSimple). High molecular weight AR was quantified as the area under the curve (AUC) from 300 to 600 kDa.
(§3) A parallel cohort of hAR100Q mice was maintained in order to evaluate AR degradation at the 11-week timepoint. hAR100Q mice in this tissue cohort were fed chow identical to the mice that underwent muscle strength and endurance tests and were euthanized at 11-weeks of age.

[3] = tested on: human AR100Q; experiment: hAR100Q (polyQ-AR) degradation in muscle of hAR100Q mice, capillary immunoassay; format: in vivo
Method: as §2, §3

[4] = tested on: AR; experiment: AR degradation in hiPSC myotubes in the presence of dihydrotestosterone (DHT); format: cell-based, human
Source text: FIG. 11 is a representative dose response curve showing mean AR concentration in DMSO treated cells plotted against Compound A concentration in SBMA patient-derived hiPSC lines differentiated into myotubes.
as §1, with “Myotubes were treated on day 20 of differentiation (6 days' worth of SKM03 media) with compounds diluted in DMSO for a final DMSO concentration of 0.01% in SKM03 media. The cells were lysed 24 hours later in Pierce RIPA buffer (Cat. No. 89900, ThermoFisher) supplemented with 1× Halt protease inhibitor cocktail (Cat. No. 87786, ThermoFisher), 1 mM MgCl2, and 1 μL Benzonase Nuclease.” left out

[5] = LABC, 11 weeks of age, chow approx. 15 mg/kg

With CC(C)N(CC1CCN(c2ncc(C(=O)N[C@H]3C(C)(C)[C@H](Oc4ccc(C#N)c(Cl)c4)C3(C)C)cn2)CC1)[C@H]1C[C@H](Oc2ccc3c(c2)C(=O)N(C2CCC(=O)NC2=O)C3=O)C1 (stereo partly drawn) [Compound A, N-((1r,3r)-3-(3-chloro-4-cyanophenoxy)-2,2,4,4-tetramethylcyclobutyl)-2-(4-((((1r,3r)-3-((2-(2,6-dioxopiperidin-3-yl)-1,3-dioxoisoindolin-5-yl)oxy)cyclobutyl)(isopropyl)amino)methyl)piperidin-1-yl)pyrimidine-5-carboxamide] the DC50 [1] was 0.6 to 0.8 nM, the “Dmax, polyQ-AR in SBMA hiPSC-myotubes” value [1] was 83-96% and the “reduction of endogenous mouse (WT) AR in LABC vs vehicle” value [2, 5] was 77%. For the same compound, the “reduction of WT AR in quadriceps vs vehicle” value ([2]; quadriceps) was 65%, the “reduction of monomeric hAR100Q (polyQ-AR) in LABC vs vehicle” value [3, 5] was 70% and the “reduction of polyQ-AR (hAR100Q) in quadriceps” value ([3]; quadriceps) was 43%. The “AR/polyQ-AR degraded in the quadriceps muscle” value ([3]; quadriceps, AR and polyQ-AR together) was 40-60%, the DC50 ([4]; DHT present at 500 pM, read-out: DC50 in hiPSC myotubes with DHT) was 5.9 nM and the DC50 ([4]; without any DHT (0 pM), read-out: DC50 in hiPSC myotubes without DHT) was 0.5 nM.
